# According to ChEMBL document CHEMBL1201862, “PubChem BioAssay data set” (2004):
#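 Protocol summary: plate cells (96-well), add compound at 5 concentrations, incubate 48 h, interpolate endpoints linearly. The concentration for 50% growth inhibition is given as GI50.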 Calls of active or inactive are those of the source. Rule as the data show it: active = GI50 up to about 1.1 µM and inactive = higher.
# How the values were obtained:
# Assay in all cases: NCI-60 cell line screen, 48 h
# [1] = test system: TK-10
# [2] = test system: A498
# [3] = test system: HOP-18
# [4] = test system: UACC-62
# [5] = test system: ACHN
# [6] = test system: OVCAR-5
# [7] = test system: SF-295
# [8] = test system: 786-0
# [9] = test system: U-251
# [10] = test system: SK-MEL-5
# [11] = test system: SN12C
# [12] = test system: HCT-15
# [13] = test system: SW-620
# [14] = test system: HCT-116
# [15] = test system: XF498
# [16] = test system: HCC 2998
# [17] = test system: DLD-1
# [18] = test system: M19-MEL
# [19] = test system: SNB-75
# [20] = test system: KM12
# [21] = test system: M14
# [22] = test system: RPMI-8226
# [23] = test system: LOX IMVI
# [24] = test system: OVCAR-3
# [25] = test system: K562
# [26] = test system: OVCAR-4
# [27] = test system: SF-268
# [28] = test system: SR
# [29] = test system: SF-539
# [30] = test system: OVCAR-8
# [31] = test system: SK-OV-3
# [32] = test system: UO-31
# [33] = test system: NCI-H460
# [34] = test system: A549
# [35] = test system: SNB-78
# [36] = test system: HOP-92
# [37] = test system: Malme-3M
# [38] = test system: HOP-62
# [39] = test system: SK-MEL-2
# [40] = test system: DMS-114
# [41] = test system: RXF 631
# [42] = test system: LXFL 529
# [43] = test system: CCRF-CEM
# [44] = test system: NCI-H522
# [45] = test system: NCI-H226
# [46] = test system: SK-MEL-28
# [47] = test system: DMS-273
# [48] = test system: UACC-257
# [49] = test system: HT-29
# [50] = test system: EKVX
# [51] = test system: MOLT-4
# [52] = test system: HL-60
# [53] = test system: KM-20L2
# [54] = test system: SNB-19
# [55] = test system: NCI-H23
# [56] = test system: IGROV-1
# [57] = test system: CAKI-1
# [58] = test system: RXF 393
# [59] = test system: COLO 205
compound,measurement,setting,value
Cc1cc(Cl)ccc1NC(=O)/C(=N\NC(C)(C)C)C(C#N)c1nc(-c2ccc([N+](=O)[O-])cc2)cs1 (stereo not given),GI50,[1],> 100 µM (inactive)
same,GI50,[2],> 100 µM (inactive)
same,GI50,[3],> 100 µM (inactive)
same,GI50,[4],> 100 µM (inactive)
same,GI50,[5],> 100 µM (inactive)
same,GI50,[6],> 100 µM (inactive)
same,GI50,[7],> 100 µM (inactive)
same,GI50,[8],> 100 µM (inactive)
same,GI50,[9],> 100 µM (inactive)
same,GI50,[10],> 100 µM (inactive)
same,GI50,[11],> 100 µM (inactive)
same,GI50,[12],> 100 µM
same,GI50,[13],> 100 µM (inactive)
same,GI50,[14],> 100 µM (inactive)
same,GI50,[15],> 100 µM (inactive)
same,GI50,[16],> 100 µM (inactive)
same,GI50,[17],> 100 µM (inactive)
same,GI50,[18],> 100 µM (inactive)
same,GI50,[19],> 100 µM (inactive)
same,GI50,[20],> 100 µM (inactive)
same,GI50,[21],> 100 µM (inactive)
same,GI50,[22],> 100 µM (inactive)
same,GI50,[23],> 100 µM (inactive)
same,GI50,[24],> 100 µM (inactive)
same,GI50,[25],> 100 µM (inactive)
same,GI50,[26],> 100 µM (inactive)
same,GI50,[27],> 100 µM (inactive)
same,GI50,[28],> 100 µM (inactive)
same,GI50,[29],> 100 µM (inactive)
same,GI50,[30],> 100 µM (inactive)
same,GI50,[31],> 100 µM (inactive)
same,GI50,[32],> 100 µM (inactive)
same,GI50,[33],> 100 µM (inactive)
same,GI50,[34],> 100 µM (inactive)
same,GI50,[35],> 100 µM (inactive)
same,GI50,[36],> 100 µM (inactive)
same,GI50,[37],> 100 µM (inactive)
same,GI50,[38],> 100 µM (inactive)
same,GI50,[39],> 100 µM (inactive)
same,GI50,[40],> 100 µM (inactive)
same,GI50,[41],> 100 µM (inactive)
same,GI50,[42],> 100 µM (inactive)
same,GI50,[43],> 100 µM (inactive)
same,GI50,[44],> 100 µM (inactive)
same,GI50,[45],> 100 µM (inactive)
same,GI50,[46],> 100 µM (inactive)
same,GI50,[47],> 100 µM (inactive)
same,GI50,[48],> 100 µM (inactive)
same,GI50,[49],> 100 µM (inactive)
same,GI50,[50],> 100 µM (inactive)
same,GI50,[51],5.79 µM (inactive)
same,GI50,[52],> 100 µM (inactive)
same,GI50,[53],> 100 µM (inactive)
same,GI50,[54],> 100 µM (inactive)
same,GI50,[55],> 100 µM (inactive)
same,GI50,[56],> 100 µM (inactive)
same,GI50,[57],> 100 µM (inactive)
C[N+](C)(C)CC(CC(=O)[O-])C1CC1 (stereo not given),GI50,[1],> 100 µM (inactive)
same,GI50,[2],> 100 µM (inactive)
same,GI50,[3],> 100 µM (inactive)
same,GI50,[4],> 100 µM (inactive)
same,GI50,[5],> 100 µM (inactive)
same,GI50,[6],> 100 µM (inactive)
same,GI50,[7],> 100 µM (inactive)
same,GI50,[8],> 100 µM (inactive)
same,GI50,[58],> 100 µM (inactive)
same,GI50,[9],> 100 µM (inactive)
same,GI50,[10],> 100 µM (inactive)
same,GI50,[11],> 100 µM (inactive)
same,GI50,[12],> 100 µM
same,GI50,[13],> 100 µM (inactive)
same,GI50,[15],> 100 µM (inactive)
same,GI50,[18],> 100 µM (inactive)
same,GI50,[19],> 100 µM (inactive)
same,GI50,[20],> 100 µM (inactive)
same,GI50,[21],> 100 µM (inactive)
same,GI50,[22],> 100 µM (inactive)
same,GI50,[23],> 100 µM (inactive)
same,GI50,[24],> 100 µM (inactive)
same,GI50,[25],> 100 µM (inactive)
same,GI50,[26],> 100 µM (inactive)
same,GI50,[27],> 100 µM (inactive)
same,GI50,[29],> 100 µM (inactive)
same,GI50,[30],> 100 µM (inactive)
same,GI50,[31],> 100 µM (inactive)
same,GI50,[32],> 100 µM (inactive)
same,GI50,[33],> 100 µM (inactive)
same,GI50,[34],> 100 µM (inactive)
same,GI50,[36],> 100 µM (inactive)
same,GI50,[37],> 100 µM (inactive)
same,GI50,[38],> 100 µM (inactive)
same,GI50,[39],> 100 µM (inactive)
same,GI50,[40],> 100 µM (inactive)
same,GI50,[41],> 100 µM (inactive)
same,GI50,[42],> 100 µM (inactive)
same,GI50,[43],> 100 µM (inactive)
same,GI50,[44],> 100 µM (inactive)
same,GI50,[46],> 100 µM (inactive)
same,GI50,[47],> 100 µM (inactive)
same,GI50,[48],> 100 µM (inactive)
same,GI50,[49],> 100 µM (inactive)
same,GI50,[50],> 100 µM (inactive)
same,GI50,[51],> 100 µM (inactive)
same,GI50,[52],> 100 µM (inactive)
same,GI50,[59],> 100 µM (inactive)
same,GI50,[53],> 100 µM (inactive)
same,GI50,[54],> 100 µM (inactive)
same,GI50,[55],> 100 µM (inactive)
same,GI50,[56],> 100 µM (inactive)
same,GI50,[57],> 100 µM (inactive)
